Measured values taken from ChEMBL document CHEMBL3430912, “GSK Tres Cantos Anti-Kinetoplastid Screening (TCAKS) Data”.

How the values were obtained:
Trypanosoma cruzi [1] = test: GSK_TCAKS: pIC50 Trypanosoma cruzi viability assay using beta-GAL activity. This assay was run at single shot at 5uM compound concentration per well. The biological reagents consisted of NIH-3T3 host cells and trypomastigotes parasitic cells; both cell types were set to a 3.3 * 10^5 cells/mL dilution in assay DMEM by means of a CASY cell counter device using a 60um capillary. 6 uL of the mixture were dispensed per well (about 1 * 10^3 host-cells and 1 * 10^3 parasites) with a Multidrop Combi dispenser. […] In all wells, the percentage of DMSO never exceeded 0.5%. Plates incubated for four days at 37C, 5% CO2. The substrate used for the assay fluorescence intensity (FLINT) readout was resorufin-beta-D-galactopiranoside (Sigma-Aldrich) at 5uM per well. It was diluted in PBS supplemented with the soft detergent Igepal (Fluka).; type: functional, organism-based, Mus musculus; details: Tulahuen, NIH3T3
Trypanosoma cruzi [2] = test: (§1) GSK_TCAKS: pIC50 Trypanosoma cruzi Imaging: Infected Cells. […] Cells were then washed once with PBS before infection. T. cruzi trypomastigotes, collected at days 5 to 8 after infection from LLC-MK2 parasite infected cultures, were allowed to swim out for 4h at 37C from a centrifuged pellet (2,500 rpm/10 min/room temperature). Trypomastigotes were then collected and counted in a CASY Cell Counter. Trypomastigotes, in supplemented DMEM, were added to H9c2 cultures in a multiplicity of infection of 1 and incubated for 18 h. Cells were washed once with PBS before incubation of the infected H9c2 monolayer with trypsin (Life-Technologies) to detach cells from the flask. Cells were counted in a CASY Cell Counter using a 150 um capillary and their density set at 5 * 10^4 cells per mL in supplemented assay DMEM. Infected H9c2 were dispensed into 384-well poly-lysine coated assay plates at 50uL per well using a Multidrop Combi dispenser. After seeding them, the plates were incubated at 37C, 5% CO2 for 72h. Cultures were then fixed and stained by addition of 50 uL of a solution containing 8% formaldehyde and 4 uM DRAQ5 DNA dye (BioStatus, UK) per well. […] Five images were collected per well for reliable statistical analysis. Automated image analysis was performed with a script developed on Acapella High Content Imaging and Analysis Software (PerkinElmer). Output: percentage of infected cells per well as a second infection marker.; type: functional, organism-based, Rattus norvegicus; details: H9c2, 4 h
Trypanosoma cruzi [3] = test: GSK_TCAKS: pIC50 Trypanosoma cruzi Imaging: Amastigotes/Cell. […] Cells were then washed once with PBS before infection. T. cruzi trypomastigotes, collected at days 5 to 8 after infection from LLC-MK2 parasite infected cultures, were allowed to swim out for 4h at 37C from a centrifuged pellet (2,500 rpm/10 min/room temperature). Trypomastigotes were then collected and counted in a CASY Cell Counter. Trypomastigotes, in supplemented DMEM, were added to H9c2 cultures in a multiplicity of infection of 1 and incubated for 18 h. Cells were washed once with PBS before incubation of the infected H9c2 monolayer with trypsin (Life-Technologies) to detach cells from the flask. Cells were counted in a CASY Cell Counter using a 150 um capillary and their density set at 5 * 10^4 cells per mL in supplemented assay DMEM. Infected H9c2 were dispensed into 384-well poly-lysine coated assay plates at 50uL per well using a Multidrop Combi dispenser. After seeding them, the plates were incubated at 37C, 5% CO2 for 72h. Cultures were then fixed and stained by addition of 50 uL of a solution containing 8% formaldehyde and 4 uM DRAQ5 DNA dye (BioStatus, UK) per well. […] Five images were collected per well for reliable statistical analysis. Automated image analysis was performed with a script developed on Acapella High Content Imaging and Analysis Software (PerkinElmer). Output: number of amastigotes per cell as infection level measurement.; type: functional, organism-based, Rattus norvegicus; details: H9c2, 4 h
Trypanosoma cruzi [4] = test: as §1, with “H2C9” for “Trypanosoma cruzi”, “H9c2 Host Cardiomyocytes.” for “Infected Cells.”, “Number” for “percentage”, “H9c2 Host Cardiomyocytes nuclei to determine drug-related cytotoxicity.” for “infected cells per well as a second infection marker.”; type: functional, organism-based, Rattus norvegicus; details: H9c2, 4 h
Leishmania donovani [5] = test: GSK_TCAKS: pIC50 Leishmania donovani viability assay using fluorescence intensity. Assay plates (1536-well) were prepared by adding 30nL per well of compound. For single shot assay, the final compound concentration was 5uM. […] Briefly, eGFP LdBOB axenic amastigotes were harvested, fixed and counted in a CASY cell counter (Roche-Applied Science). A final concentration of 1.5 * 10^5 cells per well were prepared in amastigote media containing 500 U/mL penicillin/streptomycin (Invitrogen) and 6uL was dispensed to each experimental well using a Multidrop Combi dispenser (Thermo Scientific). 6uL of assay media was dispensed to control columns used as reference for 100% compound response. Following incubation for 72 h at 37C, 5% CO2, 2 uL of resazurin was added to each well at a final concentration of 0.5 mM in phosphate buffered saline (PBS) with IGEPAL (Sigma-Aldrich), 0.05% (v/v).; type: functional, organism-based
Leishmania donovani [6] = test: (§2) GSK_TCAKS: pIC50 Leishmania donovani Imaging: Infected Macrophages. Assay plates (384-well) were prepared by adding 250nL of compound to each well. For single shot assay, the final compound concentration was 5 uM. […] Automated image analysis was performed with a script developed on Acapella High Content Imaging and Analysis Software (PerkinElmer). Output: Percent of infected macrophage cells were reported for each well.; type: functional, organism-based, Homo sapiens; details: THP-1
Leishmania donovani [7] = test: as §2, with “Amastigotes/Macrophages.” for “Infected Macrophages.”, “Average number” for “Percent”, “amastigotes per” for “infected”, “cell” for “cells”; type: functional, organism-based, Homo sapiens; details: THP-1
Leishmania donovani [8] = test: as §2, with “THP-1 Host” for “Infected”, “THP-1 cell count” for “Percent of infected macrophage cells”; type: functional, organism-based, Homo sapiens
[9] = test system: Trypanosoma brucei brucei; test: GSK_TCAKS: pIC50 Trypanosoma brucei viability assay using fluorescence intensity. Assay plates (1536-well) were prepared by dispensing 25nL of compound solution per well using an Echo acoustic dispenser (Labcyte).; type: functional, organism-based; details: Lister 427, 2 h
[10] = test system: Trypanosoma brucei brucei; test: GSK_TCAKS: pIC50 Trypanosoma brucei viability assay using luminiscence. Assay plates (1536-well) were prepared. T. brucei cultures were harvested and counted in a CASY cell counter. A parasite suspension was prepared at a final concentration of 5 * 10^4 cells/mL in complete HMI9 medium and 6uL was dispensed to all wells containing compounds using a Multidrop Combi dispenser. 6uL of HMI9 media with 0.4% DMSO were dispensed to control columns. Plates were incubated for 24 h at 37C, 5% CO2 then tempered for 10 min at room temperature. ATP content was quantified by adding 4 uL of CellTiter-Glo Reagent (Promega) according to the manufacturer's instructions. Luminescence was measured using a ViewLux.; type: functional, organism-based; details: Lister 427, CASY
[11] = GSK_TCAKS: pIC50 HepG2 human cell line viability assay using luminiscence. […] Seeding density was checked to ensure that new mono-layers were not more than 50% confluent at the time of harvesting. Cell suspension was added to 500 mL of the same medium at a final density of 1.2 * 10^5 cells/mL. This cell suspension was dispensed (25 uL, 3000 cells per well) into 384-well clear-bottom plates using a Multidrop Combi dispenser. Prior to addition of the cell suspension, the screening compounds (250 nL) were pre-dispensed into the plates with an Echo liquid handler. Plates were incubated for 48 h at 37C, 5% CO2. After incubation, plates equilibrated at room temperature for 30 min before proceeding to develop the luminescent signal. The signal developer, CellTiter-Glo Reagent, was allowed to equilibrate at room temperature for 30 min and added to the plates (25uL per well) using a Multidrop Combi dispenser. Plates were left for 10 min at room temperature for stabilization and then read using a ViewLux.; type: toxicity, cell-based
[12] = molecular target: Sterol 14-alpha demethylase (Trypanosoma cruzi (strain CL Brener), UniProt Q7Z1V1); test: GSK_TCAKS: pIC50 CYP51 from Trypanosoma cruzi.; type: functional
Chain of Sterol 14-alpha demethylase (Q7Z1V1 whole entry): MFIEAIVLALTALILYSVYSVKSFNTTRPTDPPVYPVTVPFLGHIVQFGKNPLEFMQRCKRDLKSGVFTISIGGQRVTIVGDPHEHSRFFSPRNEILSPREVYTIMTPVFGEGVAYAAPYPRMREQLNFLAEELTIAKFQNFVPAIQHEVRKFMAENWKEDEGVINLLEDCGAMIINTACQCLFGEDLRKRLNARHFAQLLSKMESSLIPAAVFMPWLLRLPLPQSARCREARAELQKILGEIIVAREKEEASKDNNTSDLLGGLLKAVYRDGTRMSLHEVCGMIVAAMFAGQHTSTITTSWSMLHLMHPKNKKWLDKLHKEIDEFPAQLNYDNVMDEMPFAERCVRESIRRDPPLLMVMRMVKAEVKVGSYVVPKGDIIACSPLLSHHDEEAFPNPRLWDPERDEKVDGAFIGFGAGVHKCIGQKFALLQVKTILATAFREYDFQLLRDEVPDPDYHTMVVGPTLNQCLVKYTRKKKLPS

| SMILES | IC50 (Trypanosoma cruzi [1]) [nM] | IC50 (Trypanosoma cruzi [2]) [nM] | IC50 (Trypanosoma cruzi [3]) [nM] | IC50 (Trypanosoma cruzi [4]) [µM] | IC50 (Leishmania donovani [5]) [µM] | IC50 (Leishmania donovani [6]) [µM] | IC50 (Leishmania donovani [7]) [µM] | IC50 (Leishmania donovani [8]) [µM] | IC50 [9] [nM] | IC50 [10] [nM] | IC50 at 48 h [11] [µM] | IC50 [12] [µM] |
| --- | --- | --- | --- | --- | --- | --- | --- | --- | --- | --- | --- | --- |
| Cc1nn2c(O)c3c(nc2c1-c1ccc(F)cc1)CCCC3 | 1580 | 2000 | 794 | > 50.1 | 1.26 | > 50.1 | > 50.1 | > 50.1 | 398 | 631 | > 100 | > 100 |
| CC(C)CC(=O)NC(c1cccs1)c1ccc2cccnc2c1O (centres undefined) | 1580 | 1260 | 794 | 2 | 6.31 | 7.94 | 3.16 | 1.58 | 631 | 631 | > 100 | 50.1 |
| c1ccc(Nc2nc3ccccc3[nH]2)nc1 | 7940 | 25100 | 10000 | 10 | 25.1 | 7.94 | 7.94 | 25.1 | 15800 | 25100 | 79.4 | > 100 |
| CN(CC1CCCO1)S(=O)(=O)c1ccc(C(=O)Nc2nc(-c3ccccn3)cs2)cc1 (centres undefined) | 1580 | 2000 | 1260 | 20 | 1.26 | 6.31 | 3.16 | 7.94 | 501 | 631 | 63.1 | 7.94 |
| Cc1cccc(Nc2nc(-c3ccccn3)cs2)n1 | 631 | 1000 | 794 | 0.631 | 3.98 | 3.16 | 2 | > 50.1 | 1000 | 501 | 39.8 | 20 |
| COc1ccc(Nc2nc(-c3ccccn3)cs2)c(OC)c1 | 3980 | 7940 | 5010 | 2 | 6.31 | 2.51 | 2 | > 50.1 | 20000 | 25100 | > 100 | 20 |
| CCOc1ccccc1C(=O)Nc1nnc(-c2ccc3c(c2)OCO3)s1 | 631 | 79.4 | 63.1 | > 50.1 | 0.794 | 0.501 | 0.316 | > 50.1 | > 39800 | > 39800 | > 100 | > 100 |
| COc1ccc(-c2csc(NC(=O)c3ccc([N+](=O)[O-])s3)n2)cc1OC | 100 | 100 | 79.4 | 6.31 | 1 | 1.26 | 1.26 | 31.6 | 126 | 631 | 10 | > 100 |
| O=C(CN1CCN(S(=O)(=O)c2cccc([N+](=O)[O-])c2)CC1)Nc1ccc(Oc2ccccc2)cc1 | 2510 | 2510 | 1260 | > 50.1 | 3.98 | 7.94 | 2 | > 50.1 | 20000 | 15800 | > 100 | 2.51 |
| COc1ccc2ncc(F)c(CCN3CC[C@@H](NC(=O)c4cc5c(s4)CCC5)[C@@H](O)C3)c2n1 | 158 | 126 | 50.1 | 0.126 | 1 | 6.31 | 1.26 | 25.1 | 100 | 316 | 50.1 | 1.26 |
| CC(=O)NC1(c2ccccc2)CCN(CC(=O)Nc2ccccc2-c2ccccc2)CC1 | 1260 | 7940 | 1580 | > 50.1 | 20 | > 50.1 | 39.8 | > 50.1 | 631 | 501 | > 100 | 50.1 |
| O=C1COC(c2ccccc2)(c2ccccc2)CN1C1CCN(Cc2ccc(-n3ccnc3)cc2)CC1 | 1580 | 2000 | 501 | 31.6 | 31.6 | 15.8 | 12.6 | 15.8 | 794 | 1000 | 50.1 | 0.0794 |
| CC(=O)Nc1ccc(CN2CCC(N3CC(c4ccccc4)(c4ccccc4)OCC3=O)CC2)cc1 | 12600 | 31600 | 20000 | > 50.1 | 0.501 | 25.1 | 20 | 39.8 | 316 | 398 | 79.4 | > 100 |
| CCc1ccccc1[C@@H](C)NC(=O)c1cnc2c(cnn2CC)c1NC1CCN(C(N)=O)CC1 | 25100 | > 50100 | 39800 | > 50.1 | > 50.1 | > 50.1 | > 50.1 | > 50.1 | 251 | 501 | > 100 | 79.4 |
| COC(=O)c1ccc(-c2cnc3ccc(NCc4ccccn4)nn23)cc1 | 7940 | 7940 | 5010 | > 50.1 | 12.6 | > 50.1 | 15.8 | 12.6 | 631 | 1000 | 100 | 1.26 |
| O=C(Nc1cccc(S(=O)(=O)Nc2ccc(Br)cc2)c1)c1ccc([N+](=O)[O-])s1 | 100 | 126 | 100 | 2.51 | 0.794 | 1 | 0.794 | 10 | 200 | 398 | 15.8 | 2.51 |
| CCc1cccc(CC)c1-n1c(SCC(=O)N2CC(=O)Nc3ccccc32)nnc1-c1cccnc1 | 25100 | 31600 | 25100 | > 50.1 | 39.8 | > 50.1 | > 50.1 | > 50.1 | 501 | 1000 | > 100 | 3.16 |
